In PubChem BioAssay (NCI) one finds GI50 and TGI data, which are given here for eight molecules.

Where “and” joins values, the source holds several entries; their conditions need not be identical. Equal values may be shown once.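 Values below derive from 48-hour exposures of cells grown in 96-well plates, with endpoints linearly interpolated between the two concentrations bracketing the appropriate inhibition level. Abbreviation: GI50, concentration required for 50% inhibition of growth. Definition used: TGI = concentration required for complete inhibition of growth.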 A value given as a limit tells only on which side of the number the result lay.

Test systems include OVCAR-5 ovarian; NCI-H23 lung; MDA-MB-231 breast; MALME-3M melanoma; OVCAR-8 ovarian; SK-OV-3 ovarian; U251 CNS; SF-295 CNS; HOP-92 NSCLC; ACHN renal.
Assay in all cases: NCI-60 cell line screen, 48 h

`CCN(C(=O)N1CCN(c2cc3c(cc2F)c(=O)c(C(=O)O)cn3C2CC2)CC1)c1nc(-c2ccccc2)cs1`: the GI50 is 3.27 µM with OVCAR-5 ovarian; 2.79 µM in the assay on NCI-H23 lung; 2.11 µM with MDA-MB-231 breast; 2.77 µM in the assay with MALME-3M melanoma; 3.33 µM in the assay with OVCAR-8 ovarian; 2.1 µM with SK-OV-3 ovarian. The GI50 is 3.25 µM with U251 CNS, 2.24 µM in the assay with SF-295 CNS, 2.17 µM in the assay with HOP-92 NSCLC and 1.69 µM in the assay with ACHN renal. Also, the TGI was greater than 100 µM in the assay with OVCAR-5 ovarian; 29.5 µM in the assay with NCI-H23 lung; 5.92 µM in the assay on MDA-MB-231 breast; 9.06 µM in the assay with MALME-3M melanoma; greater than 100 µM in the assay with OVCAR-8 ovarian; 6.86 µM with SK-OV-3 ovarian. For the same molecule, the TGI in the assay with U251 CNS came out at 22.9 µM; in the assay with SF-295 CNS, 8.51 µM; in the assay with HOP-92 NSCLC it was 7.53 µM; in the assay with ACHN renal, 9.47 µM.
Regarding `Oc1ccc(NC(=S)Nc2ccccc2)cc1`, the GI50 in the assay on OVCAR-5 ovarian, with NCI-H23 lung, in the assay on MDA-MB-231 breast, in the assay with MALME-3M melanoma, in the assay with OVCAR-8 ovarian and with SK-OV-3 ovarian was greater than 100 µM throughout. The GI50 is greater than 100 µM in the assay with U251 CNS, greater than 100 µM in the assay with SF-295 CNS, 51.8 µM in the assay with HOP-92 NSCLC and greater than 100 µM in the assay on ACHN renal. The TGI with OVCAR-5 ovarian, in the assay on NCI-H23 lung, with MDA-MB-231 breast, in the assay with MALME-3M melanoma, in the assay on OVCAR-8 ovarian and with SK-OV-3 ovarian was greater than 100 µM each time. Further, the TGI in the assay with U251 CNS, in the assay with SF-295 CNS, with HOP-92 NSCLC and in the assay with ACHN renal was greater than 100 µM throughout.
`O=C(Nc1ccc(OS(=O)(=O)c2ccc(F)cc2)cc1)C12CC3CC(CC(C3)C1)C2`: the GI50 in the assay on OVCAR-5 ovarian is 26.1 µM; in the assay on NCI-H23 lung, 10.1 µM; with MDA-MB-231 breast it was 4.58 µM; with MALME-3M melanoma it was 9.13 µM; in the assay with OVCAR-8 ovarian, 18.1 µM; with SK-OV-3 ovarian, 10.3 µM. Further, the GI50 is 18 µM in the assay with U251 CNS, 1.57 µM in the assay on SF-295 CNS, 3.45 µM in the assay on HOP-92 NSCLC and 14.6 µM in the assay with ACHN renal. Also, the TGI in the assay on OVCAR-5 ovarian is greater than 100 µM; in the assay on NCI-H23 lung, greater than 100 µM; in the assay on MDA-MB-231 breast it was 52.7 µM; in the assay on MALME-3M melanoma, 54.4 µM; with OVCAR-8 ovarian it was greater than 100 µM; in the assay with SK-OV-3 ovarian, 47.3 µM. Moreover, the TGI with U251 CNS is greater than 100 µM; in the assay on SF-295 CNS, 29.1 µM; with HOP-92 NSCLC, 18.1 µM; in the assay on ACHN renal it was greater than 100 µM.
With `CC[C@@]1(O)C(=O)OCc2c1cc1n(c2=O)Cc2cc3cc(Cl)ccc3nc2-1`, the GI50 was 0.0635 µM and 0.0706 µM in the assay on OVCAR-5 ovarian; 0.00226 µM in the assay with NCI-H23 lung; 0.094 µM in the assay with MDA-MB-231 breast; 0.0305 µM and 0.0444 µM in the assay on MALME-3M melanoma; 0.00117 µM and 0.0112 µM in the assay with OVCAR-8 ovarian; 0.0152 µM in the assay on SK-OV-3 ovarian. The GI50 is 0.00197 µM in the assay with U251 CNS; less than 0.001 µM in the assay on SF-295 CNS; 0.0256 µM and 0.0415 µM in the assay with HOP-92 NSCLC; 0.00228 µM in the assay with ACHN renal. For the same molecule, the TGI with OVCAR-5 ovarian is 0.363 µM and 0.318 µM; in the assay on NCI-H23 lung, 0.00545 µM and 0.0196 µM; in the assay on MDA-MB-231 breast, 4.69 µM; in the assay with MALME-3M melanoma it was 0.818 µM and 0.564 µM; in the assay with OVCAR-8 ovarian, 0.109 µM and 0.203 µM; in the assay on SK-OV-3 ovarian it was 39.9 µM. Moreover, the TGI is 0.0234 µM in the assay with U251 CNS; 0.0893 µM with SF-295 CNS; 1.32 µM and 0.709 µM in the assay on HOP-92 NSCLC; 0.0107 µM with ACHN renal.
As to `NC(N)=NN=c1c(=O)c2ccccc2c1=O`, the GI50 with OVCAR-5 ovarian was 17.5 µM; in the assay on NCI-H23 lung, 1.79 µM; in the assay on MDA-MB-231 breast, 16 µM; in the assay with MALME-3M melanoma it was 1.66 µM; in the assay on OVCAR-8 ovarian, 10.1 µM; in the assay with SK-OV-3 ovarian, 19.6 µM. The GI50 in the assay with U251 CNS is 4.36 µM; in the assay on SF-295 CNS, 13.6 µM; with HOP-92 NSCLC it was 19.3 µM; with ACHN renal, 6.46 µM. Moreover, the TGI came out at 32.5 µM in the assay on OVCAR-5 ovarian; 3.94 µM in the assay on NCI-H23 lung; 33.7 µM in the assay on MDA-MB-231 breast; 3.06 µM in the assay with MALME-3M melanoma; 22.5 µM with OVCAR-8 ovarian; 33.8 µM in the assay on SK-OV-3 ovarian. Moreover, the TGI in the assay on U251 CNS is 15.8 µM; in the assay on SF-295 CNS, 27.7 µM; in the assay with HOP-92 NSCLC, 34.9 µM; with ACHN renal, 19.2 µM.
As to `O=c1cc(-c2ccc(Cl)cc2)[nH]c2ccccc12`, the GI50 with OVCAR-5 ovarian was greater than 100 µM; with NCI-H23 lung it was 63 µM; in the assay on MDA-MB-231 breast, 57 µM; in the assay on MALME-3M melanoma, 53.5 µM; with OVCAR-8 ovarian it was greater than 100 µM; in the assay on SK-OV-3 ovarian it was 44.8 µM. Further, the GI50 with U251 CNS was 41.5 µM; in the assay with SF-295 CNS, 41.2 µM; in the assay on HOP-92 NSCLC, 64.2 µM; with ACHN renal, 57.8 µM. Moreover, the TGI in the assay with OVCAR-5 ovarian, in the assay on NCI-H23 lung, in the assay on MDA-MB-231 breast, in the assay on MALME-3M melanoma, in the assay with OVCAR-8 ovarian and with SK-OV-3 ovarian was greater than 100 µM in each case. In addition, the TGI in the assay on U251 CNS, with SF-295 CNS, with HOP-92 NSCLC and in the assay with ACHN renal was greater than 100 µM throughout.
Take `O=C1Cc2c(-c3ccccc3)cc(-c3ccccc3)nc2-c2ccccc2N1`: the TGI in the assay with OVCAR-5 ovarian is 21.2 µM; with NCI-H23 lung, 36.6 µM; in the assay on MDA-MB-231 breast, 17.2 µM; in the assay on MALME-3M melanoma, greater than 100 µM; with OVCAR-8 ovarian, 21 µM; in the assay with SK-OV-3 ovarian, 18.9 µM. Besides, the TGI was 20 µM in the assay on U251 CNS, 10.7 µM in the assay with SF-295 CNS, greater than 100 µM in the assay with HOP-92 NSCLC and 19 µM in the assay on ACHN renal. Besides, the GI50 in the assay with ACHN renal is 4.04 µM.
Turning to `COC(=O)c1cc(-c2ccc3ccccc3c2)[nH]c(=O)c1C#N`, the TGI with OVCAR-5 ovarian, in the assay on NCI-H23 lung, in the assay on MDA-MB-231 breast, in the assay on MALME-3M melanoma, in the assay on OVCAR-8 ovarian and in the assay on SK-OV-3 ovarian was greater than 100 µM in each case. For the same molecule, the TGI in the assay with U251 CNS, with SF-295 CNS, with HOP-92 NSCLC and in the assay with ACHN renal was greater than 100 µM throughout.
